From patent US20240251785A1, “SMALL MOLECULE ANTAGONISTS AND AGONISTS OF ARTHROPOD KININ RECEPTORS FOR PEST CONTROL” (The Texas A&M University System, priority 2021, published 2024)
Where two headings read alike, the source gives them in different places. Where no end group is shown, it is not given here.

Assays:
[1] = tested on: vector-only (V/O) CHO-K1 cells; assay: Dose-response dual-addition calcium fluorescence assay on vector-only cells; assay type: cell-based
[2] = target: recombinant tick kinin receptor (BMLK3) (Rhipicephalus microplus, UniProt Q9NHA4); assay: Dose-response dual-addition calcium fluorescence assay on BMLK3 cells; assay type: cell-based; conditions: for activity type in dose-response assay, in words: Rhimi-K-1 1 μmol L^−1; for inhibition at 12 µM: read-out: Inhibitory Efficacy at 12 μM
[3] = tested on: Human dermal fibroblasts (HDF) cells; assay: Cytotoxicity assay (resazurin); assay type: cell-based
[4] = tested on: isolated hindguts from females of the mosquito Aedes aegypti; assay: Hindgut contraction inhibition assay; conditions: for effect on hindgut contraction elicited by 1728, in words: compound 100 μmol L^−1, 5 min, then 1728 10 μmol L^−1, 1 h
Protocol: A mosquito colony of Ae. aegypti (Diptera: Culicidae), Liverpool strain, was maintained at 26.5° C. in a 16 h:8 h, light:dark photoperiod and provided with 10% sugar water, as described previously.^31 For the experiment, 3-5-day-old females were used, and the assay was modified based on our previous protocol.^33 A group of six female mosquitoes were cold-anesthetized on a Petri dish placed on ice, where both wings were removed. Mosquitoes became active when the plate was removed from the ice. The dissection dish was filled with Ringer's solution (150 mmol L^−1 NaCl, 25 mmol L^−1 HEPES, 3.4 mmol L^−1 KCl, 7.5 mmol L^−1 NaOH, 1.8 mmol L^−1 NaHCO3. 1 mmol L^−1 MgSO4, 1.7 mmol L^−1 CaCl2 and 5 mmol L^−1 glucose, pH 7.1) at room temperature. To dissect the hindgut of each mosquito, their head and thorax were removed with forceps, and the abdomen was submerged in the Ringer solution. The hindgut, ovaries and Malpighian tubules (MTs), and midgut were taken out by pulling the last segment of the abdomen under the Ringer solution. Then, the ovaries and the majority of the midgut were removed using scissors leaving the intact hindgut and MTs. The isolated tissue was transferred with forceps, gripping on the cuticle of the last segment, into a drop of 30 μL Ringer solution in a 12-well-plate (Greiner Bio-One®, 665,102). After six mosquitoes were dissected as a group, paraffin oil (1-2 mL) was added to each well to cover the saline. The cuticle of the last abdominal segment was drawn out of the Ringer solution into the oil for better observation of the hindgut contraction. The tissues were filmed using an Olympus SZ60 camera (Olympus America Inc., Center Valley, PA, USA) mounted on a dissecting microscope.
First, the hindgut basal contraction rate was recorded by filming each tissue for 60 s. […] After 5 min of incubation at room temperature, 15 μL kinin agonist analog 1728 solution (4×in Ringer solution) was added to the Ringer solution to reach a final concentration of 10 μmol L^−1. After 1 h of incubation, the tissue was filmed again for 60 s.
The contractible hindgut of mosquito consists of a funnel-shaped pylorus located immediately after the posterior midgut, followed by a long, coiled ileum, and a bulbous colon which contains the rectal pads, and a tapering rectal tube at the posterior end.^35 To analyze each video, the hindgut contraction number was counted by observing the contraction occurring at the junction between the pyloric sphincter and the most anterior ileum. The hindgut contraction rate was expressed as the number of contractions observed over 60 s. The fold change in contraction rate was calculated as the contraction rate estimated at 1 h post treatment divided by the basal rate estimated before the treatment with the chemicals. Each treatment was repeated with 30 female mosquitoes independently. All statistical analyses were done by PRISM software (v8, GraphPad). The differences in fold-change of the contraction rates among treatments were analyzed using the nonparametric Kruskal-Wallis test, followed by the Dunn's multiple comparison test. […].

[5] = tested on: R. microplus kinin receptor; assay: High-throughput dual-addition calcium fluorescence screen on BMLK3 cells; assay type: cell-based, Rhipicephalus microplus; conditions: compound 2 μmol L^−1, 5 min, then FFFSWGa 500 nmol L^−1
[6] = V/O cells, second addition Rhimi-K-1 1 μmol L^−1, read-out: V/O antagonist IC50
[7] = summary of 36 validated antagonist hits, vector-only cell (V/O)
[8] = first addition, 20 concentrations 28 nM-25 μM, read-out: BMLK3 EC50
[9] = second addition Rhimi-K-1 1 μmol L^−1, read-out: BMLK3 IC50
[10] = summary of 36 validated antagonist hits, BMLK3 cells, read-out: BMLK3 EC50
[11] = summary of 36 validated antagonist hits, BMLK3 cells, read-out: BMLK3 IC50
[12] = Human dermal fibroblasts cells, tested at 20 μcool L^−1
[13] = virtual hit molecules, dual-addition assay, vector-only cell (V/O)
[14] = virtual hit molecules, dual-addition assay, vector-only cell (V/O), read-out: V/O antagonist IC50
[15] = virtual hit molecules, dual-addition assay, recombinant tick kinin receptor (BMLK3) cells, read-out: BMLK3 EC50
[16] = virtual hit molecules, dual-addition assay, recombinant tick kinin receptor (BMLK3) cells, read-out: BMLK3 antagonist IC50
[17] = Cricetulus griseus, CHO-K1, summary of 36 validated antagonist hits, vector-only cell (V/O)
[18] = Table 5 analogs, V/O cells, read-out: V/O antagonist IC50
[19] = Table 5 analogs, first addition, read-out: BMLK3 EC50
[20] = Table 5 analogs, second addition Rhimi-K-1 1 μmol L^−1, read-out: BMLK3 antagonist IC50

Chain of recombinant tick kinin receptor (BMLK3) (Q9NHA4 entry or part of it): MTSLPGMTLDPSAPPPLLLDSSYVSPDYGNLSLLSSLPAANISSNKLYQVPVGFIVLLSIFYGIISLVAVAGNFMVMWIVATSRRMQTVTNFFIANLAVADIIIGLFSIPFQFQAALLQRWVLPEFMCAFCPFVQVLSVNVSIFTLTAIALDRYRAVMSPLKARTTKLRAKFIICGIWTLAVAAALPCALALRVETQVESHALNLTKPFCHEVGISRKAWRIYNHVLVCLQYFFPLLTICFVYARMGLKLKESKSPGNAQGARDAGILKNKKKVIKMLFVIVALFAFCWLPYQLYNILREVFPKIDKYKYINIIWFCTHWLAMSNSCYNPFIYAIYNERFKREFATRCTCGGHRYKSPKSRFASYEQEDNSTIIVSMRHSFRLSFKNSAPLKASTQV

Row | Molecule | Inhibitory Efficacy at 12 μM ([2]; 12 μM, BMLK3 cells) | EC50 [2, 8] | IC50 [2, 9] | EC50 [2, 10] | IC50 [2, 11] | EC50 ([1]; V/O cells, first addition) | IC50 [1, 6] | EC50 [1, 7] | IC50 [1, 7] | HDF average % growth inhibition [3, 12] | further results
1 | CCCCCCCCn1c2c(c(=N)c3c1CCC3)CCCC2 [SACC-0050177] | 35.48% | 7.08 µM | > 25 µM | 7.08 µM | > 25 µM | > 25 µM | 12.3 µM | > 25 µM | 12.3 µM | 38.55% | 
2 | C/N=c1\[nH]c2cc([N+](=O)[O-])c([N+](=O)[O-])cc2[nH]\c1=N\C [SACC-0010666] |  |  |  |  |  |  |  |  |  |  | EC50 ([1]; Cricetulus griseus, CHO-K1, V/O cells, first addition): 1.35 µM; IC50 ([1]; Cricetulus griseus, CHO-K1, V/O cells, second addition Rhimi-K-1 1 μmol L^−1, read-out: V/O antagonist IC50): 14.9 µM; IC50 [1, 17]: 14.9 µM; EC50 [2]: 0.914 µM; IC50 [2]: 0.808 µM; inhibition at 12 µM [2]: 4.47%; HDF average % growth inhibition ([3]; human, 48 h, 20 μmol L^−1): −4.62%
3 | O=C1C=CC(Nc2ccc([N+](=O)[O-])cc2)C1Nc1ccc([N+](=O)[O-])cc1 (stereo not shown) [SACC-0121252] | 42.68% | 0.177 µM | > 25 µM | 0.177 µM | > 25 µM | > 25 µM | 2.53 µM | > 25 µM | 2.53 µM | 4.83% | 
4 | C/C(CCC(C)C)=N\N=C(/S)NCc1ccccc1 [SACC-0018618] | 55.77% | > 25 µM | 4.29 µM | > 25 µM | 4.29 µM | > 25 µM | > 25 µM | > 25 µM | > 25 µM | 7.327% | antagonist Io (%) [5]: 58%; activity type in dose-response assay, in words ([2]; BMLK3 cells): full agonist
5 | COc1ccc(S(=O)(=O)Nc2ccc(O)c(Sc3nc4ccccc4s3)c2)cc1 [SACC-0089495] |  |  |  |  |  |  |  |  |  | −2.817% | IC50 [1, 17]: 5.99 µM; EC50 ([1]; Cricetulus griseus, CHO-K1, virtual hit molecules, dual-addition assay, vector-only cell (V/O)): 9.06 µM; IC50 ([1]; Cricetulus griseus, CHO-K1, virtual hit molecules, dual-addition assay, vector-only cell (V/O), read-out: V/O antagonist IC50): 5.99 µM; inhibition at 12 µM ([2]; 12 μM, BMLK3 cells): 71.3%; EC50 [2, 15]: 3.04 µM; IC50 [2, 16]: 6.53 µM
6 | C[C@@](O)(C#Cc1ccccc1)c1ccc(N2CCCCC2)c(F)c1 [SACC-0006795] | 33.05% | > 25 µM | 17.3 µM | > 25 µM | 17.3 µM | < 0.0285 µM | > 25 µM | < 0.0285 µM | > 25 µM | −1.773% | antagonist Io (%) [5]: 55%
7 | Cc1ccc(-c2csc3ncnc(NCc4ccco4)c23)cc1 [SACC-0033457] | 55.73% | 0.122 µM | 14.8 µM | 0.122 µM |  | 11.5 µM | 0.679 µM |  |  | 8.023% | antagonist Io (%) [5]: 63%
8 | NPFHAWG-NH2 [aedeskinin 2, reference compound] |  |  |  |  |  |  |  |  |  |  | hindgut contraction rate, in words ([4]; 1 μmol L^−1, 1 h (data not shown)): increase of hindgut contraction rate

The next lines start with results.

Row | Inhibitory Efficacy at 12 μM ([2]; 12 μM, BMLK3 cells) | EC50 [2, 8] | IC50 [2, 9] | EC50 [2, 10] | IC50 [2, 11] | Molecule | EC50 ([1]; V/O cells, first addition) | IC50 [1, 6] | EC50 [1, 7] | IC50 [1, 7] | HDF average % growth inhibition [3, 12] | further results
9 | 59.47% | 5.73 µM | 8.51 µM | 5.73 µM | 8.51 µM | O=C(O)COc1ccc(Br)cc1/C=N/Nc1cccc2cccnc12 [SACC-0126875] | 4.61 µM | > 25 µM | 4.61 µM | > 25 µM | 7.477% | 
10 | 71.31% |  |  | 5.4 µM | 7.17 µM | CSc1nc2ccc(NS(=O)(=O)c3ccc(Cl)s3)cc2s1 [SACC-0099442] |  |  | 10.8 µM | 1.12 µM | −1.16% | EC50 [1, 13]: 10.8 µM; IC50 [1, 14]: 1.12 µM; activity type in dose-response assay, in words ([2]; BMLK3 cells): full agonist; EC50 [2, 15]: 5.4 µM; IC50 [2, 16]: 7.17 µM
11 | 48.16% |  |  | 0.978 µM | 0.509 µM | Cc1ccc(C=C2SC(=S)N(NS(=O)(=O)c3ccc(C)cc3)C2=O)cc1 [SACC-0412061] |  |  | 5.5 µM | 2.71 µM | −1.013% | EC50 ([1]; Table 5 analogs, V/O cells): 5.5 µM; IC50 [1, 18]: 2.71 µM; activity type in dose-response assay, in words ([2]; BMLK3 cells): partial antagonists; EC50 [2, 19]: 0.978 µM; IC50 [2, 20]: 0.509 µM
12 | 91.75% |  |  | 9.57 µM | 1.89 µM | O=C1C(=Cc2ccccc2)SC(=S)N1NS(=O)(=O)c1ccccc1 [SACC-0412060] |  |  | 9.27 µM | 0.538 µM | 6.873% | EC50 ([1]; Table 5 analogs, V/O cells): 9.27 µM; IC50 [1, 18]: 0.538 µM; EC50 [2, 19]: 9.57 µM; IC50 [2, 20]: 1.89 µM; hindgut contraction rate, in words ([4]; compound 10 μmol L^−1, 1 h after 1728 (data not shown)): no increase in the hindgut contraction rate was observed; effect on hindgut contraction elicited by 1728, in words [4]: inhibited the increased rate of muscle contraction; effect on hindgut contraction elicited by 1728, in words ([4]; listed as SACC-0412000): significantly reduced the mobility of the hindgut
13 | 0.61% |  |  | 24.2 µM | 0.627 µM | Cc1ccc(S(=O)(=O)NN2C(=O)C(=Cc3ccc(F)cc3)SC2=S)cc1 [SACC-0412063] |  |  | 1.21 µM | > 25 µM | 2.277% | EC50 ([1]; Table 5 analogs, V/O cells): 1.21 µM; IC50 [1, 18]: > 25 µM; activity type in dose-response assay, in words ([2]; BMLK3 cells): very weak partial antagonists; EC50 [2, 19]: 24.2 µM; IC50 [2, 20]: 0.627 µM
14 | 26.16% |  |  | 1.96 µM | 6.22 µM | Cc1ccc(S(=O)(=O)Nc2ccc3nc(N)sc3c2)cc1 [SACC-0034373] |  |  | 2.49 µM | > 25 µM | −7% | EC50 [1, 13]: 2.49 µM; IC50 [1, 14]: > 25 µM; EC50 [2, 15]: 1.96 µM; IC50 [2, 16]: 6.22 µM
15 | 107.39% | 8.88 µM | 1.51 µM | 8.88 µM | 1.51 µM | CCCC[n+]1c(/C=C2/C=CN(CC)c3ccc(C)cc32)ccc2ccccc21 [SACC-0048555] | 12.8 µM | 3.59 µM | 12.8 µM | 3.59 µM | −9.767% | antagonist Io (%) [5]: 54%; activity type in dose-response assay, in words ([2]; BMLK3 cells): full agonist
16 | 37.34% |  |  | < 0.0285 µM | 3.69 µM | CCN1C=C/C(=C\C=C\c2cc[n+](CC)c3ccccc23)c2ccccc21 [SACC-0054132] |  |  | 2.56 µM | 0.207 µM | 9.037% | EC50 [1, 13]: 2.56 µM; IC50 [1, 14]: 0.207 µM; EC50 [2, 15]: < 0.0285 µM; IC50 [2, 16]: 3.69 µM
17 | 69.87% |  |  |  |  | Cc1csc2ncnc(NCCc3ccc(Cl)cc3)c12 [SACC-0039590] |  |  | 1.63 µM | 5.58 µM | −13.23% | EC50 [1, 13]: 1.63 µM; IC50 [1, 14]: 5.58 µM
